# Reference: article PMC11234063, “Eugenol and lidocaine inhibit voltage-gated Na^+ channels from dorsal root ganglion neurons with different mechanisms” (Frontiers in Pharmacology, 2024)
# Several values for one entry are separate records, joined by “and”; a condition that tells them apart may be missing. Equal entries are not always repeated. Entries after “also recorded” stand apart in the source; their conditions may differ. Where two headings read alike, the source gives them in different places.
# Columns and labels:
# Type in all cases: cell-based, rat
# [1] = test system: TTX-R INa (VGSCs of DRG neurons); details: EUG 2 mM, LID 1 mM
# [2] = test system: total INa (VGSCs of DRG neurons); assay: Inhibition in depolarization time series at 2 and 5 Hz, total INa; details: EUG 2 mM, LID 1 mM
# DRG neuron = assay: Action potential firing, current clamp; details: EUG 1 mM; 1-ms 1-nA depolarizing current injection
# [3] = test system: TTX-R INa (VGSCs of DRG neurons)
# [4] = test system: persistent total INa (DRG neurons); assay: Persistent total INa at the end of 50-ms depolarizing pulses; details: EUG 2 mM, LID 1 mM
# [5] = test system: total INa (VGSCs of DRG neurons); assay: INa inactivation time constants during test pulse, total INa
# [6] = test system: TTX-R INa (VGSCs of DRG neurons); assay: Voltage dependence of Na+ conductance activation (I-V and G-V curves), TTX-R INa; details: EUG 2 mM
# [7] = test system: total INa (VGSCs of DRG neurons); assay: Slow inactivation entry, three-pulse protocol, total INa
# [8] = test system: TTX-R INa (VGSCs of DRG neurons); assay: Slow inactivation entry, three-pulse protocol, TTX-R INa
# [9] = test system: total INa (VGSCs of DRG neurons); assay: Voltage dependence of Na+ conductance activation (I-V and G-V curves), total INa; details: EUG 2 mM
# [10] = test system: TTX-R INa (VGSCs of DRG neurons); details: EUG 2 mM, LID 1 mM; remark: listed apart in the source
# [11] = test system: total INa (VGSCs of DRG neurons); assay: Steady-state inactivation, 100-ms conditioning pre-pulses, total INa; details: EUG 2 mM, LID 1 mM
# [12] = test system: TTX-R INa (VGSCs of DRG neurons); remark: listed apart in the source
# [13] = test system: total INa (VGSCs naturally expressed on dorsal root ganglion sensory neurons); assay: Dose–response inhibition of total INa peak, whole-cell patch clamp
# [14] = inhibition at all activating voltages
# [15] = individual cells, during exposure to EUG 2 mM or LID 1 mM
compound,measurement,setting,value
"C=CCc1ccc(O)c(OC)c1 [EUG, 4-allyl-2-methoxyphenol]","Shift of the steady-state inactivation curve, on average",[1]; 100-ms conditioning pulse,−5 mV
same,Max slope-inact,[1],−5.83 ± 0.43 (n = 7) ns mV/e-fold
same,V1/2-inact,[1],−36.9 ± 2.48 (n = 7) mV
same,Max slope-inact in individual cells,[1]; individual cells,-5.184 mV/efold and -6.728 mV/efold and -5.779 mV/efold and -3.945 mV/efold and -7.158 mV/efold and -6.792 mV/efold and -5.233 mV/efold
same,V1/2-inact in individual cells,[1]; individual cells,-28.59 mV and -33.94 mV and -32.48 mV and -34.07 mV and -46.4 mV and -44.79 mV and -37.94 mV
same,"Fractional inhibition, 2 Hz, 1st pulse",[2],0.53 ± 0.049 (n = 9)
same,"Fractional inhibition, 5 Hz, 1st pulse",[2],0.49 ± 0.056 (n = 8)
same,"Fractional current after blockade, 2 Hz, 1st pulse, individual cells",[2]; individual cells,0.40 and 0.52 and 0.58 and 0.37 and 0.28 and 0.50 and 0.730 and 0.29 and 0.53
same,"Fractional current after blockade, 2 Hz, 20th pulse, individual cells",[2]; individual cells,0.36 and 0.54 and 0.56 (2×) and 0.34 and 0.15 and 0.49 and 0.74 and 0.26
same,"Fractional current after blockade, 5 Hz, 1st pulse, individual cells",[2]; individual cells,0.4 and 0.56 and 0.58 and 0.35
same,"Fractional current after blockade, 5 Hz, 20th pulse, individual cells",[2]; individual cells,0.31 (2×) and 0.47 and 0.54
same,Effect on action potential firing,DRG neuron,promptly inhibits action potential firing; also recorded: prevents neurons from firing action potentials
same,Reversibility of inhibition after drug washout,[3],fully reversible
same,"Dose response curves' data, Average (fractional current)",[3]; drug at 0.1 mM,0.96
same,"Dose response curves' data, Average (fractional current)",[3]; drug at 0.3 mM,0.92
same,"Dose response curves' data, Average (fractional current)",[3]; drug at 1 mM,0.85
same,"Dose response curves' data, Average (fractional current)",[3]; drug at 3 mM,0.34
same,"Dose response curves' data, Average (fractional current)",[3]; drug at 10 mM,0.14
same,"Dose response curves' data, Average (fractional current)",[3]; drug at 30 mM,0.00
same,IC50,"[3]; holding −110 mV, test +20 mV",2210 ± 80 µM
same,"Time series of INa blockade, Average (normalized current)","[3]; time 15 sec, drug exposure",0.62
same,"Time series of INa blockade, Average (normalized current)","[3]; time 20 sec, drug exposure",0.62
same,"Time series of INa blockade, Average (normalized current)","[3]; time 25 sec, drug exposure",0.63
same,"Time series of INa blockade, Average (normalized current)","[3]; time 30 sec, recovery",1.00
same,"Time series of INa blockade, Average (normalized current)","[3]; time 35 sec, recovery",1.04
same,"Time series of INa blockade, Average (normalized current)","[3]; time 40 sec, recovery",1.03
same,Inhibition of persistent total INa after 50-ms depolarization,[4],remarkably inhibited; also recorded: effectively inhibits
same,Effect on inactivation time constants,[5],unaffected
same,Max slope-act,[6]; LID 1 mM,6.4 ± 0.4 (n = 7) mV/e-fold
same,V1/2-act,[6]; LID 1 mM,−11.5 ± 1.96 (n = 7) ns mV
same,Effect on reversal potential of the currents,[6]; [14],without significantly affecting
same,Max slope-act in individual cells,"[6]; individual cells, LID 1 mM",6.818 mV/efold and 6.311 mV/efold and 5.452 mV/efold and 4.894 mV/efold and 8.267 mV/efold and 6.510 mV/efold and 6.698 mV/efold
same,V1/2-act in individual cells,"[6]; individual cells, LID 1 mM",-9.916 mV and -13.33 mV and -16.67 mV and -10.24 mV and -5.511 mV and -5.684 mV and -19.13 mV
same,Fast inactivation entry time constant,"[7]; EUG 2 mM, LID 1 mM",792.48 ± 298.530 ^ns ms
same,Fractional current when P1 = 2 m,"[7]; EUG 2 mM, LID 1 mM",0.82 ± 0.034 ^ns
same,Percent fast component (slow inactivation entry),"[7]; EUG 2 mM, LID 1 mM",26.92 ± 4.583 ^ns %
same,Slow inactivation entry time constant,"[7]; EUG 2 mM, LID 1 mM","1,142.30 ± 246.525 ^ns"
same,"Slow inactivation state entry kinetics of INa, individual cells",[7]; [15],713.90 and 1928.00 and 344.50 and 1032.00 and 1066.00
same,Fast inactivation entry time constant,"[8]; EUG 2 mM, LID 1 mM",76.58 ± 30.563^ns ms
same,Fractional current when P1 = 2 m,"[8]; EUG 2 mM, LID 1 mM",0.93 ± 0.028^ns
same,Percent fast component (slow inactivation entry),"[8]; EUG 2 mM, LID 1 mM",47.56 ± 16.257^ns %
same,Slow inactivation entry time constant,"[8]; EUG 2 mM, LID 1 mM",631.05 ± 282.320^ns
same,"Slow inactivation state entry kinetics of INa, individual cells",[8]; [15],558.80 and 167.30 and 405.40 and 711.30 and 255.80
same,Max slope-act,[9]; LID 1 mM,5.4 ± 0.41 (n = 9) mV/e-fold
same,V1/2-act,[9]; LID 1 mM,−13.8 ± 2.18 (n = 9) mV
same,Effect on reversal potential of the currents,[9]; [14],without significantly affecting
same,Max slope-act in individual cells,"[9]; individual cells, LID 1 mM",5.526 mV/efold and 5.494 mV/efold and 4.967 mV/efold and 6.616 mV/efold and 5.996 mV/efold and 6.156 mV/efold and 4.306 mV/efold and 2.717 mV/efold and 6.496 mV/efold
same,V1/2-act in individual cells,"[9]; individual cells, LID 1 mM",-10.73 mV and -7.173 mV and -19.64 mV and -5.137 mV and -8.98 mV and -24.01 mV and -14.91 mV and -13.00 mV and -20.84 mV
same,"Fractional inhibition, 2 Hz, 20th pulse",[10],0.44 ± 0.064 (n = 6)
same,"Fractional inhibition, 5 Hz, 20th pulse",[10],0.49 ± 0.061 (n = 6)
same,"Fractional current after blockade, 2 Hz, 1st pulse, individual cells",[10]; individual cells,0.62 and 0.6 and 0.47 and 0.55
same,"Fractional current after blockade, 2 Hz, 20th pulse, individual cells",[10]; individual cells,0.56 and 0.48 and 0.36 and 0.46
same,"Fractional current after blockade, 5 Hz, 1st pulse, individual cells",[10]; individual cells,0.75 and 0.63 and 0.55 and 0.51
same,"Fractional current after blockade, 5 Hz, 20th pulse, individual cells",[10]; individual cells,0.66 and 0.54 and 0.36 and 0.43
same,Max slope-inact,[11],−12.2 ± 10.7 (n = 9) ns mV/e-fold
same,V1/2-inact,[11],−63.85 ± 2.92 (n = 9) mV
same,Max slope-inact in individual cells,[11]; individual cells,-14.8 mV/efold and -10.65 mV/efold and -13.47 mV/efold and -10.21 mV/efold and -17.93 mV/efold and -9.046 mV/efold and -7.985 mV/efold and -14.87 mV/efold and -11.22 mV/efold
same,V1/2-inact in individual cells,[11]; individual cells,-63.75 mV and -57.14 mV and -69.63 mV and -55.48 mV and -75.79 mV and -59.29 mV and -57.64 mV and -78.67 mV and -57.24 mV
same,Effect on inactivation time constants,[12],unaffected
same,Pre-inhibition of total INa,[13]; EUG at 1.3 mM,~25%
same,Time to inhibition of INa upon addition,"[13]; fast single-cell superfusion, 0.2 Hz time series",less than 5 s
same,Reversibility of inhibition after drug washout,[13]; total INa,fully reversible
same,"Dose response curves' data, Average (fractional current), EUG (LID 0.5 mM)","[13]; total INa, EUG 0.1 mM in the presence of LID 0.5 mM",0.97
same,"Dose response curves' data, Average (fractional current), EUG (LID 0.5 mM)","[13]; total INa, EUG 0.3 mM in the presence of LID 0.5 mM",0.85
same,"Dose response curves' data, Average (fractional current), EUG (LID 0.5 mM)","[13]; total INa, EUG 1 mM in the presence of LID 0.5 mM",0.60
same,"Dose response curves' data, Average (fractional current), EUG (LID 0.5 mM)","[13]; total INa, EUG 3 mM in the presence of LID 0.5 mM",0.46
same,"Dose response curves' data, Average (fractional current), EUG (LID 0.5 mM)","[13]; total INa, EUG 10 mM in the presence of LID 0.5 mM",0.10
same,"Dose response curves' data, Average (fractional current)","[13]; total INa, drug at 0.001 mM",1.00
same,"Dose response curves' data, Average (fractional current)","[13]; total INa, drug at 0.1 mM",0.98
same,"Dose response curves' data, Average (fractional current)","[13]; total INa, drug at 0.3 mM",0.93
same,"Dose response curves' data, Average (fractional current)","[13]; total INa, drug at 1 mM",0.86
same,"Dose response curves' data, Average (fractional current)","[13]; total INa, drug at 3 mM",0.36
same,"Dose response curves' data, Average (fractional current)","[13]; total INa, drug at 10 mM",0.07
same,"Dose response curves' data, Average (fractional current)","[13]; total INa, drug at 30 mM",0.01
same,IC50,"[13]; total INa, holding −110 mV, test +20 mV, drug alone",2270 ± 75 µM
same,"Time series of INa blockade, Average (normalized current)","[13]; total INa, time 15 sec, drug exposure",0.55
same,"Time series of INa blockade, Average (normalized current)","[13]; total INa, time 20 sec, drug exposure",0.54
same,"Time series of INa blockade, Average (normalized current)","[13]; total INa, time 25 sec, drug exposure",0.54
same,"Time series of INa blockade, Average (normalized current)","[13]; total INa, time 30 sec, recovery",0.96
same,"Time series of INa blockade, Average (normalized current)","[13]; total INa, time 35 sec, recovery",0.99
same,"Time series of INa blockade, Average (normalized current)","[13]; total INa, time 40 sec, recovery",0.99
